Reference: paper PMC4726707, “Effect of Copper and Zinc on the Single Molecule Self-Affinity of Alzheimer’s Amyloid-β Peptides” (PLoS ONE, 2016)
Entries after “also recorded” stand apart in the source; their conditions may differ. Where two headings read alike, the source gives them in different places.

Tests used:
amyloid-β (1–42) (Aβ42) = target: T1, amyloid-β (1–42) (Aβ42) (Homo sapiens, UniProt P05067); test: Single molecule force spectroscopy / dynamic force spectroscopy (AFM) of Aβ-Aβ dimer dissociation, Friddle-De Yoreo model; assay type: binding; conditions: for Kd: read-out: chemical dissociation constant, Kd; for change of Aβ-Aβ self-affinity / dimer dissociation constant by metal ion: 20 nM (nanomolar) metal ion vs aqueous HEPES buffer control; for change of association rate (kon) of Aβ-Aβ vs aqueous control: 20 nM metal ion, kon = koff/Kd
T1 construct: purchased rPeptide (Bogart USA)
Excerpt: In this work we used single molecule force spectroscopy (SMFS) to further elucidate the mechanism of the very initial stage of amyloid aggregation—the dimerization of two peptides. SMFS is a nanoscale technique whereby an atomic force microscopy (AFM) tip is used to probe the unbinding of two molecules of interest—one bound to the surface, the other to the tip. When AFM tip is brought to the surface the binding between two Aβ monomers occur and when the tip is retracted the unbinding forces between two monomers are measured. To extract kinetic and thermodynamic parameters governing the system, the retraction velocity of the tip is varied. This iteration of SMFS is referred to as dynamic force spectroscopy (DFS).
We prepared our experiments in accordance with our previous force spectroscopy experiments, of which the methods are detailed extensively in [23]. Briefly, Veeco MLCT SiNi AFM cantilever were cleaned by soaking in ethanol and exposing to UV light for 30 minutes. […] The mica and cantilevers were then soaked for 3 hours in a solution of 3400 MW NHS-PEG-MAL (Laysan Bio, Alabaster GA) solution. […] The surface of the cantilever tip and mica surface were soaked in the Aβ solution for 30 minutes. Following rinsing, unreacted maleimide groups were quenched with b-merceptoethanol. Tips and mica were then rinsed and stored in HEPES buffer.
Typical cantilever spring constants were between 8 and 120 mN/m but varied with each individual experiment. Spring constants were measured using Hutter’s thermal noise method. A series of force curves were taken with an approach and retract velocity varying between 50 and 10,000 nm/s resulting in loading rates between 0.3 and 300 nN/s. Following the collection of an Aβ42 data set in HEPES buffer, a 20 nM metal ionic solution (Cu^2+ or Zn^2+) in HEPES buffer was added to the liquid cell of the AFM and additional force curves were collected for comparison.
JPK data analysis software was used to analyze force curves. […] The force curves were smoothed, the x-axis leveled, both axes set to 0, and the force curve corrected for cantilever bending to obtain tip-sample separation, z. A WLC fit was obtained for each force curve while rupture force and contour length data were recorded. Data was sorted in order of rupture force and the highest rupture force data were eliminated using Poisson statistics to eliminate force curves that were likely the result of simultaneous multiple unbinding events.
Loading rates were corrected to account for the effect of the PEG linker. We fit the Friddle-De Yoreo reversible binding equation to the entirety of the dataset (comprised of the rupture force and corrected loading rate of each force curve) using a Levenberg-Marquardt best fit algorithm in Origin 9.0 graphing software. For pooled datasets, we used the mean spring constant of the cantilevers used in the experiments. We extracted the equilibrium force, feq, the thermal scaling factor, fβ, and the kinetic off rate, koff(feq) at the equilibrium force as well as standard errors from the dataset using the graphing software. These parameters were then used to calculate parameters ΔG (the difference in free energy between the bound and free states), xβ (the width of the energy barrier), koff (the kinetic dissociation, or off- rate), and Kd (the dissociation constant) using the equations used in [34, 35].
Analysis of variance (ANOVA) testing was conducted on ΔG, xβ, koff, and Kd. Following the ANOVA test, a post hoc Welsh’s t-test was conducted to compare the parameters for the aqueous experiments compared to the copper experiments and for the aqueous environment experiments compared to the zinc experiments.

Aβ [1] = conditions: cited from earlier work
Excerpt: The role of metal ions on amyloid aggregation and toxicity has been studied extensively. […] Cu^2+ ions increase neurotoxicity by both accelerating amyloid aggregation and increasing oxidative stress. This increased propensity of Aβ to aggregate in a Cu^2+ rich environment has been attributed to Cu^2+ ions causing Aβ to move closer to its isoelectric point, thereby inducing aggregation. […] In this work, rather than determining the affinity of metal ions to the Aβ monomer, we calculated the self-affinity of two Aβ42 peptides in the presence of copper and zinc ions.

Aβ (1–42) = conditions: with Cu^2+ ions; cited from earlier work
Excerpt: Our previous results led us to hypothesize that since […] AD is largely a function of abnormal Aβ clearance, increased affinity of Aβ would make amyloid clearance considerably more problematic. In this work we used single molecule force spectroscopy (SMFS) to further elucidate the mechanism of the very initi ...

Aβ [2] = conditions: cited from earlier work; remark: listed apart in the source
Excerpt: Despite the well established effect ...

Molecule | ΔG (free energy difference between bound and unbound states) for Aβ-Aβ unbinding (amyloid-β (1–42) (Aβ42); aqueous HEPES 50 mM buffer, pH 7.4, 150 mM NaCl, no metal ion added) [kBT] | Kd (amyloid-β (1–42) (Aβ42); control, Aβ dimerization in HEPES buffer) [µM] | Kd (amyloid-β (1–42) (Aβ42); with 20 nM Cu^2+) [µM] | ΔG (free energy difference between bound and unbound states) for Aβ-Aβ unbinding (amyloid-β (1–42) (Aβ42); with Cu^2+ [20nM] in HEPES buffer pH 7.4) [kBT] | ΔG (free energy difference between bound and unbound states) for Aβ-Aβ unbinding (amyloid-β (1–42) (Aβ42); with Zn^2+ [20nM] in HEPES buffer pH 7.4) [kBT] | change of Aβ-Aβ self-affinity / dimer dissociation constant by metal ion (amyloid-β (1–42) (Aβ42); listed as copper) | change of association rate (kon) of Aβ-Aβ vs aqueous control (amyloid-β (1–42) (Aβ42)) | Cu^2+-Aβ affinity (Aβ [1]) | Cu^2+-Aβ affinity (Aβ [1]; listed as Copper) | unbinding force between two Aβ (1–42) peptides (Aβ (1–42)) | nucleation and elongation of amyloid fibril formation (Aβ [2]; substoichiometric concentrations of Cu^2+ ions) | Aβ aggregation onset (Aβ [2]; trace concentrations of copper vs aqueous without metal ions) | change of Aβ-Aβ self-affinity / dimer dissociation constant by metal ion (amyloid-β (1–42) (Aβ42)) | change of Aβ-Aβ self-affinity / dimer dissociation constant by metal ion (amyloid-β (1–42) (Aβ42); listed as zinc) | change of height of the energy barrier (amyloid-β (1–42) (Aβ42); with Zn^2+ 20 nM vs aqueous control)
amyloid-β (1–42) [Aβ-Aβ] | 7.83 ± 3.03 | 402 | 173 | 8.66 ± 1.62 | 4.89 ± 1.35 |  |  |  |  |  |  |  |  |  | 
[Cu+2] [Cu^2+, copper] |  |  |  |  |  | do not change the single molecule affinity of Aβ to another Aβ peptide in a statistically significant way; also recorded: does not change the dissociation constant by a statistically significant amount; also recorded: did not measure a significant effect | approximately half an order of magnitude higher; also recorded: approximately five times higher than the association rate in the control experiments | nanomolar to picomolar range | nano- to picomolar range | increased the unbinding force between two Aβ (1–42) peptides | induce acceleration in both the nucleation and elongation phases of amyloid fibril formation | Aβ begins to aggregate instantly compared to the characteristic lag period |  |  | 
[Zn+2] [Zn^2+, zinc] |  |  |  |  |  |  | half an order of magnitude lower; also recorded: one-fifth of the control experiment |  |  |  |  |  | decreases the affinity of Aβ-Aβ interactions by an order of magnitude | decrease the affinity of Aβ-Aβ by an order of magnitude; also recorded: increases the dimer dissociation constant (which corresponds to a decreased monomer-monomer chemical affinity) by an order of magnitude | decreased the height of the energy barrier
